Reference: patent publication US12187720B2, “Compounds for treatment of cancer” (ONCTERNAL THERAPEUTICS, INC., priority 2010, dated 2025)
pIC50: −log10 of the molar value. In brackets after ≈: the same amount, converted by molar mass. Structures can show the parent of a compound that is named as a salt. Where two headings read alike, the source gives them in different places.

Assays:
Bovine brain tubulin = experiment: In vitro tubulin polymerization assay (bovine brain tubulin); format: biochemical; conditions: 10 μM, 20 min incubation, versus vehicle
[1] = Metabolic stability in hamster liver microsomes; format: in vitro ADME; conditions: pH 7.4, phase I pathway, read-out: T ½ (min), hamster liver microsomes
[2] = Metabolic stability in mouse liver microsomes; format: in vitro ADME; conditions: mouse, liver microsomes
[3] = Metabolic stability in human liver microsomes; conditions: human, liver microsomes, pH 7.4
[4] = Metabolic stability in monkey liver microsomes; format: in vitro ADME; conditions: monkey, pH 7.4
[5] = Metabolic stability in rat liver microsomes; format: in vitro ADME; conditions: rat, liver microsomes, pH 7.4; phase I pathway; read-out: T ½ (min), rat liver microsomes
[6] = Metabolic stability in guinea pig liver microsomes; format: in vitro ADME; conditions: pH 7.4, phase I pathway, read-out: T ½ (min), guinea pig liver microsomes
[7] = Metabolic stability in rabbit liver microsomes; format: in vitro ADME; conditions: pH 7.4, phase I pathway, read-out: T ½ (min), rabbit liver microsomes
MES-SA/DX5 = experiment: SRB growth inhibition assay, P-gp over-expressing MES-SA/DX5 cells; format: cell-based; conditions: ratio of IC50 MES-SA/DX5 to MES-SA
in vivo = conditions: male, ICR, mouse, plasma, 5 mg/kg; for Vd / clearance: iv
[8] = Metabolic stability in dog liver microsomes; format: in vitro ADME; conditions: dog, pH 7.4
PC-3 = experiment: SRB cytotoxicity assay, PC-3 prostate cancer cells; format: cell-based, human; conditions: Homo sapiens, PC-3
Text: (§1) Cells were stained with SRB solution.

B16-F1 = experiment: SRB cytotoxicity assay, B16-F1 mouse melanoma cells; format: cell-based; conditions: read-out: IC50 ± SEM B16-F1 (converted)
WM-164 = experiment: SRB cytotoxicity assay, WM-164 human melanoma cells; format: cell-based; conditions: read-out: IC50 ± SEM WM164 (converted)
PPC-1 = experiment: SRB cytotoxicity assay, PPC-1 prostate cancer cells; format: cell-based, human; conditions: Homo sapiens, PPC-1
Text: as §1

A375 = experiment: SRB cytotoxicity assay, A375 human melanoma cells; format: cell-based; conditions: Homo sapiens, A-375, 48 h, read-out: IC50 ± SEM A375
LNCaP = experiment: SRB cytotoxicity assay, LNCaP prostate cancer cells; format: cell-based, human; conditions: Homo sapiens, LNCaP
Text: as §1

DU 145 = experiment: SRB cytotoxicity assay, DU 145 prostate cancer cells; format: cell-based; conditions: Homo sapiens
Text: as §1

[9] = Water solubility, 48 h shaking in water, LC-MS; format: physicochemical
Protocol: Determination of water solubility. […] The suspension was centrifuged at 10,000 rpm for 10 min and filtered on 0.22 μm filter. Concentrations of each compound were measured by LC-MS, consisting of an HP S1100 HPLC instrument (Agilent, Foster ceity, CA) and a Bruker ESQUIRE MS detector with electrospray/ion trap instrument in positive ion mode (Bruker, Fremont, CA). For HPLC, a reverse phase Nova-pak C18 column (150 mm×3.9 mm, Waters, Milford, MA) was used. The mobile phase was composed of 20:80 v/v water/acetonitrile. […] The concentration of each compound was calculated by MS peak area according to the following calibration equation: y=1.3295x+114.24 (R^2=1.00). […] The amount (ng) in each injection was plotted again its relative mass peak area to generate the standard curve in FIG. 17.

[10] = tested on: melanoma and prostate cancer cell lines; experiment: SRB cytotoxicity, summary or average over melanoma and prostate cancer cell lines; format: cell-based; conditions: average of all seven cell lines
PC-3/TxR = experiment: cells; conditions: Homo sapiens, PC3-TxR, read-out: inhibitory effects PC3/TXR
DU145/TXR = experiment: SRB growth inhibition, paclitaxel-resistant DU145/TXR cells; format: cell-based; conditions: Homo sapiens, DU-145; Table 13A; read-out: inhibitory effects DU145/TXR
WM-164 melanoma cells = experiment: Microtubule imaging (immunofluorescence) in WM-164 melanoma cells; format: cell-based, human; conditions: 18 h
Text: Primary antibody for tubulin and fluorescence-labeled secondary antibody were subsequently added to the cells. Cell nuclei were stained by DAPI. Whole Cell Stain Green was also applied to all cells. All images were acquired with an Olympus IX71 inverted fluorescence microscope (Olympus Corp., Tokyo, Japan) with overlays from separate images of tubulin (red), nuclei (blue), and whole cells (green).

PC-3/TxR tumors = conditions: for tumor growth inhibition (TGI): day 1 and 9
[11] = Brain penetration (brain and plasma concentrations) in nude mice; conditions: IP 10 mpk, mean ± SD
[12] = pH 7.4, Table 20, read-out: Half life in Mouse liver microsome
[13] = pH 7.4, phase I pathway, read-out: T ½ (min), mouse liver microsomes
[14] = liver microsomes, phase I pathway, read-out: T ½ (min), monkey liver microsomes
[15] = monkey liver microsomes, Table 20, read-out: Half life in Monkey liver microsome
[16] = dog liver microsomes, Table 20, read-out: Half life in Dog liver microsome
[17] = liver microsomes, phase I pathway, read-out: T ½ (min), dog liver microsomes
[18] = Table 13A, read-out: inhibitory effects PC3
[19] = Table 13A, read-out: inhibitory effects PPC1
[20] = Table 13A, read-out: inhibitory effects LNCaP
[21] = Table 13A, read-out: inhibitory effects DU145
[22] = PC-3/TxR xenograft, IV 10 mpk, day 1 and 9, end point day 19

COc1cc(C(=O)c2cccc(-c3ccccc3)n2)cc(OC)c1OC [1c, (6-Phenylpyridin-2-yl)(3,4,5-trimethoxyphenyl)methanone]
inhibition of tubulin polymerization (Bovine brain tubulin): 64%

COc1cc(-c2nccc3ccc(-c4ccc5[nH]ccc5c4)cc23)cc(OC)c1OC [6a]
half-life at 0.5 μM [1]: 6 min | half-life at 0.5 μM [2, 12]: 3.43 min | half-life at 0.5 μM [2, 13]: 3.4 min | half-life at 0.5 μM [3]: 32 min | half-life at 0.5 μM [4, 14]: 16 min | half-life at 0.5 μM [4, 15]: 16 min | half-life at 0.5 μM [5]: 12 min | half-life at 0.5 μM [6]: 15 min | half-life at 0.5 μM [7]: 17 min | Resistance factor (MES-SA/DX5): 1.5 | AUC (in vivo; ip): 983 ng·h/mL | Cmax (in vivo; ip): 678 ng/mL | bioavailability (in vivo; ip): 60% | Vd (in vivo): 2.3 L/kg | clearance (in vivo): 51 mL/min/kg | AUC (in vivo; po): 83.3 ng·h/mL | Cmax (in vivo; po): 6.7 ng/mL | bioavailability (in vivo; po): 5% | half-life at 0.5 μM [8, 16]: 13 min | half-life at 0.5 μM [8, 17]: 13 min

c1cc2ccc(-c3ccc4[nH]ccc4c3)cc2c(-c2ccc3[nH]ccc3c2)n1 [6b, 1,7-Bis-(1H-indol-5-yl)-isoquinoline]
half-life at 0.5 μM [1]: 11 min | half-life at 0.5 μM [2, 12]: 10 min | half-life at 0.5 μM [2, 13]: 10 min | half-life at 0.5 μM [3]: 40 min | half-life at 0.5 μM [4, 14]: 13 min | half-life at 0.5 μM [4, 15]: 13 min | half-life at 0.5 μM [5]: 9 min | half-life at 0.5 μM [6]: 15 min | half-life at 0.5 μM [7]: 16 min | Resistance factor (MES-SA/DX5): 1.4 | AUC (in vivo; ip): 3630 ng·h/mL | Cmax (in vivo; ip): 1500 ng/mL | bioavailability (in vivo; ip): 60% | Vd (in vivo): 1.1 L/kg | clearance (in vivo): 14 mL/min/kg | AUC (in vivo; po): 117 ng·h/mL | Cmax (in vivo; po): 50 ng/mL | bioavailability (in vivo; po): 2.1% | half-life at 0.5 μM [8, 16]: 30 min | half-life at 0.5 μM [8, 17]: 30 min

Fc1ccc(-c2nccc3ccc(-c4ccc5[nH]ccc5c4)cc23)cc1 [6c, 1-(4-Fluoro-phenyl)-7-(1H-indol-5-yl)-isoquinoline]
half-life at 0.5 μM [1]: 20 min | half-life at 0.5 μM [2, 12]: 13 min | half-life at 0.5 μM [2, 13]: 13 min | half-life at 0.5 μM [3]: 47 min | half-life at 0.5 μM [4, 14]: 9 min | half-life at 0.5 μM [4, 15]: 9 min | half-life at 0.5 μM [5]: 14 min | half-life at 0.5 μM [6]: 8 min | half-life at 0.5 μM [7]: 16 min | AUC (in vivo; ip): 917 ng·h/mL | Cmax (in vivo; ip): 1100 ng/mL | bioavailability (in vivo; ip): 33% | Vd (in vivo): 1.8 L/kg | clearance (in vivo): 30 mL/min/kg | AUC (in vivo; po): 66.7 ng·h/mL | Cmax (in vivo; po): 50 ng/mL | bioavailability (in vivo; po): 2.7% | half-life at 0.5 μM [8, 16]: 29 min | half-life at 0.5 μM [8, 17]: 29 min

O=C(c1cccc(F)c1)c1cn(S(=O)(=O)c2ccccc2)c(-c2ccccc2)n1 [11ag, (3-fluorophenyl)(2-phenyl-1-(phenylsulfonyl)-1H-imidazol-4-yl)methanone]
pIC50 (PC-3; Table 13, 96 h, read-out: IC50 ± SEM PC-3): < 5.00 | IC50 (B16-F1; Mus musculus, B16-F1, 48 h, Table 13, 48 h): > 10 µM | IC50 (WM-164; Homo sapiens, WM164, 48 h, Table 13, 48 h): > 10 µM | pIC50 (PPC-1; Table 13, 96 h, read-out: IC50 ± SEM PPC-1): < 5.00 | pIC50 (A375; Table 13, 48 h): < 5.00 | pIC50 (LNCaP; Table 13, 96 h, read-out: IC50 ± SEM LNCaP): < 5.00 | pIC50 (DU 145; Table 13, 96 h, read-out: IC50 ± SEM Du 145): < 5.00

Cc1ccc(-c2nc(C(=O)c3ccc(F)cc3)c[nH]2)cc1 [12db-HCl, (4-fluorophenyl)(2-(p-tolyl)-1H-imidazol-4-yl)methanone hydrochloride]
IC50 (B16-F1; Table 12, 48 h, hydrochloride): 0.297 µM | IC50 (WM-164; Table 12, 48 h, hydrochloride): 0.112 µM

COc1cc(-c2nc(C(=O)c3ccc(F)cc3)c[nH]2)cc(OC)c1OC [12eb, (4-fluorophenyl)(2-(3,4,5-trimethoxyphenyl)-1H-imidazol-4-yl)methanone]
IC50 (B16-F1; Mus musculus, B16-F1, 48 h, Table 12, 48 h): > 10 µM | IC50 (WM-164; Homo sapiens, WM164, 48 h, Table 12, 48 h): > 10 µM | pIC50 (A375; Table 12, 48 h): < 5.00

COc1cc(C(=O)c2c[nH]c(-c3ccc(N(C)C)cc3)n2)cc(OC)c1OC [12ga, (2-(4-(dimethylamino)phenyl)-1H-imidazol-4-yl)(3,4,5-trimethoxyphenyl)methanone]
water solubility, times greater than thiazole counterpart [9]: about 200 times | solubility at 48 h ([9]; thermodynamic from solid, water, 48 h, RT): 13 µg/mL (≈ 34.1 µM) | pIC50 [10]: 6.88

COc1cc(C(=O)c2nc(-c3ccc(Cl)cc3)c[nH]2)cc(OC)c1OC [70c, (4-(4-chlorophenyl)-1H-imidazol-2-yl)(3,4,5-trimethoxyphenyl)methanone]
pIC50 (PC-3; [18]): 7.19 | pIC50 (PC-3/TxR): 7.60 | pIC50 (PPC-1; [19]): 7.29 | pIC50 (LNCaP; [20]): 7.66 | pIC50 (DU 145; [21]): 6.90

COc1cc(C(=O)c2nc(-c3ccc(C(F)(F)F)cc3)c[nH]2)cc(OC)c1OC [70e, (4-(4-(trifluoromethyl)phenyl)-1H-imidazol-2-yl)(3,4,5-trimethoxyphenyl)methanone]
pIC50 (PC-3; [18]): 7.03 | pIC50 (PC-3/TxR): 7.34 | pIC50 (PPC-1; [19]): 7.12 | pIC50 (DU145/TXR): 6.69 | pIC50 (LNCaP; [20]): 7.33 | pIC50 (DU 145; [21]): 6.68

COc1ccc(-c2c[nH]c(C(=O)c3cc(OC)c(OC)c(OC)c3)n2)cc1 [70g, (4-(4-methoxyphenyl)-1H-imidazol-2-yl)(3,4,5-trimethoxyphenyl)methanone]
pIC50 (PC-3; [18]): 7.21 | pIC50 (PC-3/TxR): 7.60 | pIC50 (PPC-1; [19]): 7.27 | pIC50 (DU145/TXR): 6.95 | pIC50 (DU 145; [21]): 6.68

COc1ccc(S(=O)(=O)Nc2cccnc2Nc2ccc(O)cc2)cc1 [ABT-751, reference compound]
effect on microtubules (WM-164 melanoma cells): microtubule fragmentation

COc1cc(C(=O)c2csc(-c3ccc(N(C)C)cc3)n2)cc(OC)c1OC [corresponding thiazole analog]
water solubility ([9]; water, 48 h, RT): 0.072 µg/mL (≈ 0.181 µM)

CC(=O)O[C@@]12CO[C@@H]1C[C@H](O)[C@@]1(C)C(=O)[C@H](O)C3=C(C)[C@@H](OC(=O)[C@H](O)[C@@H](NC(=O)OC(C)(C)C)c4ccccc4)C[C@@](O)([C@@H](OC(=O)c4ccccc4)[C@H]21)C3(C)C [docetaxel, Docetaxel]
TGI (PC-3/TxR tumors; [22]): 14% | Tumor size End (PC-3/TxR tumors; [22]): 1774 ± 183 mm^3 | TGI (PC-3/TxR tumors; PC-3/TxR xenograft, IV 20 mpk, day 1 and 9, end point day 19): 56% | tumor growth inhibition (TGI) (PC-3/TxR tumors; i.v. 10 mg/kg): 14% | tumor growth inhibition (TGI) (PC-3/TxR tumors; i.v. 20 mg/kg): 56% | Brain ([11]; 1 hr): 33 ± 14 ng/mL | Plasma ([11]; 1 hr): 768 ± 92 ng/mL | Brain ([11]; 4 hr): 20 ± 9 ng/mL | Plasma ([11]; 4 hr): 345 ± 94 ng/mL
